In patent US20090068642A1, “Composition and pharmacology of novel alpha6-containing nicotinic acetylcholine receptors” (priority 2003, published 2009):
“And” between values parts separate entries of the source, which are not always exact repeats. Identical values can stand only once. “Also recorded” adds a separate entry of the source. Like-named read-outs stand apart in the source and are kept apart here.

Columns and labels:
α6β3β4α5 nAChR [1] = target: T1, α6β3β4α5 nAChR (Homo sapiens, UniProt P30926+Q15825); test: [3H]-epibatidine binding to SH-EP1 α6β3β4α5 cell membranes (saturation and competition)
T1 construct: expressed in transfected cells; host or cells: SH-EP1 human epithelial cells
T1 sequence (Q15825 26-494): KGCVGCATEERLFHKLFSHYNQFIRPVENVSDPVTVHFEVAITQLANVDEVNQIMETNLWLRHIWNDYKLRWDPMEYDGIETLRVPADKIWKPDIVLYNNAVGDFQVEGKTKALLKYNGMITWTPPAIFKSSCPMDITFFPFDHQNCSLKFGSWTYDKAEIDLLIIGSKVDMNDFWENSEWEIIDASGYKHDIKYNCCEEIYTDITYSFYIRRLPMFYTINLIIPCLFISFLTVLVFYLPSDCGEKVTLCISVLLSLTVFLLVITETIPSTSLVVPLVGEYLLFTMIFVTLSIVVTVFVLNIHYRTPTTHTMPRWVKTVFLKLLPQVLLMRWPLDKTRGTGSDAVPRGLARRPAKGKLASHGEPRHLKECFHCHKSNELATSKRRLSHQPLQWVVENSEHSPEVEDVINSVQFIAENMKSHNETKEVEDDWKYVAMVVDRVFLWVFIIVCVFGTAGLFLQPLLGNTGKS
T1 sequence (Q05901 25-458 partner limits assumed): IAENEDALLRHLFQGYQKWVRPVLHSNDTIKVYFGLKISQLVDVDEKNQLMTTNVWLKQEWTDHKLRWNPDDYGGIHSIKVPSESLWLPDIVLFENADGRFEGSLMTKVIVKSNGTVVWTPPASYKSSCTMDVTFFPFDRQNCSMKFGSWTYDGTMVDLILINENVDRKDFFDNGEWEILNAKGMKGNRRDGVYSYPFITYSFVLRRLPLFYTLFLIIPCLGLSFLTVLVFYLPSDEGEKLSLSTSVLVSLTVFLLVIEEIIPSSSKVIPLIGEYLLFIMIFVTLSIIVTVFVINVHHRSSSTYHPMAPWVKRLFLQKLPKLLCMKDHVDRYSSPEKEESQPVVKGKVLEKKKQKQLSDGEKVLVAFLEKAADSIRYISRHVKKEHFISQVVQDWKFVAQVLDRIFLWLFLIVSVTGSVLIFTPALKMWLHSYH
T1 sequence (P30926 22-498): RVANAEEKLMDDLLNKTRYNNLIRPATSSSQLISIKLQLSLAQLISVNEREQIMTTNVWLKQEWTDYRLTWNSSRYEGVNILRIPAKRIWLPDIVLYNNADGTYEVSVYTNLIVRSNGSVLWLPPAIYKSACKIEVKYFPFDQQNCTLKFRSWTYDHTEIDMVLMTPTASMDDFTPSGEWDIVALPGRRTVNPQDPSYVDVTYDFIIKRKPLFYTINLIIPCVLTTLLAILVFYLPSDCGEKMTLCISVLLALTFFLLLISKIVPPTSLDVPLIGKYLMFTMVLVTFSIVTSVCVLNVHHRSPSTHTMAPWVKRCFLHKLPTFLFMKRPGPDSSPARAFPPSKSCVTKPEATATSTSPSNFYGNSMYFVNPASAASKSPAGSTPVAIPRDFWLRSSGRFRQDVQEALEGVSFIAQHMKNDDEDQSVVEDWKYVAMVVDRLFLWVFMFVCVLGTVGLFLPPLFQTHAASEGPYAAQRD
T1 sequence (P30532 23-468 partner): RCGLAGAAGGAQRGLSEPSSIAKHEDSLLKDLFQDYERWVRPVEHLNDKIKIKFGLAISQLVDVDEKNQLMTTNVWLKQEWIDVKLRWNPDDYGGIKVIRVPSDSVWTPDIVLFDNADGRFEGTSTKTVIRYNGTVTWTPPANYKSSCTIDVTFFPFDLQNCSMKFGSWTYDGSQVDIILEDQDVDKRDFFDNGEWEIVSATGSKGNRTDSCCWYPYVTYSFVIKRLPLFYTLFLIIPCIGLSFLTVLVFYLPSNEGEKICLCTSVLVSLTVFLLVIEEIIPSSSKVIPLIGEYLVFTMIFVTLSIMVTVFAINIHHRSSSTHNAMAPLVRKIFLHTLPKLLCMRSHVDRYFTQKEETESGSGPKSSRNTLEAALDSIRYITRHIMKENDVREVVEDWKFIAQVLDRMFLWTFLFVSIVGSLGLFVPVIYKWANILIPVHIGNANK
Experimental: Preparation of Cell Membranes for Receptor Binding. […] Combined homogenate (18 mL) was centrifuged at 40,000×g for 20 min (4° C.). The pellet was resuspended in 12 mL of ice-cold PBS and centrifuged again. The final pellet was resuspended in 10 mL of PBS.
[^3H]-Epibatidine Binding. For the saturation binding assay, 0.1 to 2.0 nM [^3H]-EPI (final concentrations; PerkinElmer Life Sciences, 56.2 Ci/mmol) was used to probe α6-comprising binding sites on the cell membranes. Competition binding assay was performed using 0.5 nM [^3H]-EPI (final concentration).
Each well contained 50 μL of test compound at the desired concentration, 50 μL of 4×[^3H]-EPI stock solution and 100 μL of membrane suspension and was performed in triplicate, at minimum. Samples were incubated for 2 hr at room temperature with gentle agitation. Samples defining total binding included buffer instead of test compound.
For 48-well plates, binding was terminated by immediate filtration onto GF/B filters (presoaked in 0.3% PEI) using a 48-sample, semi-auto harvester (Brandel, Gaithersburg, Md.), followed by washing 3 times with ice-cold buffer. Filters were transferred into scintillation vials filled with 3 mL of cocktail. Radioactivity was measured after 8-12 hr using a liquid scintillation analyzer (model Tri-Carb 2200CA, PerkinElmer Life Sciences Inc., Boston, Mass.). Data were expressed as disintegrations per minute (DPMs) and were converted to an absolute amount (fmoles) of bound [^3H]-EPI per mg of protein, or as a percent of control [^3H]-EPI binding (total—nonspecific).
For 96-well plates, incubation was terminated by dilution with ice-cold PBS and immediate filtration onto GF/B filter plate (presoaked in 0.3% PEI) using a 96-sample, semi-auto harvester (Brandel, Gaithersburg, Md.). After washing 3 times with ˜350 μl of ice-cold buffer, the filter plate was dried for 60 min in an oven at 49° C., bottom-sealed and each well filled with 40 μl of cocktail. […] Data were expressed as counts per minute (CPMs) and were converted to percent of control [^3H]-EPI binding (total—nonspecific).
Pseudo Hill slope (nH) was determined by fitting data to a sigmoidal dose-response equation (variable slope): % binding=Bottom+(Top−Bottom)/[1+10^(logIC50-X)·n], where X is the logarithm of inhibitor concentration and n is the slope.
A Scatchard analysis was also done for illustrative purposes, but not to determine specific binding parameters.

α4β2 nAChR [2] = target: T2, α4β2 nAChR (Rattus norvegicus, UniProt P09483+P12390); conditions: Table 1; from Briggs et al, 1997; read-out: Ki α4β2 [3H]-NIC Binding; cited from earlier work
T2 construct: Rat Brain; from tissue
T2 sequence (P12390 25-500): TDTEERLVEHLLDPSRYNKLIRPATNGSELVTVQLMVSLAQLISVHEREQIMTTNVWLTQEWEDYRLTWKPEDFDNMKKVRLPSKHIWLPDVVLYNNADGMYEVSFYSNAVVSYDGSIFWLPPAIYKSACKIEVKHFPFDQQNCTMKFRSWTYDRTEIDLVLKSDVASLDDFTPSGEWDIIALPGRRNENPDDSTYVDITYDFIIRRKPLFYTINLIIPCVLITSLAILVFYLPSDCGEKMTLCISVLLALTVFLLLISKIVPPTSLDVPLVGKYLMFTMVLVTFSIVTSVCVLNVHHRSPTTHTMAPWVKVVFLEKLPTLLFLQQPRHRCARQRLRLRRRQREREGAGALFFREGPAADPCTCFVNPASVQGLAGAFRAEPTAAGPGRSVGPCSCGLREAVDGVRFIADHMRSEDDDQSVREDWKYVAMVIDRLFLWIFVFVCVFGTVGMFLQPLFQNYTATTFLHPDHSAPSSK
T2 sequence (P09483 31-630): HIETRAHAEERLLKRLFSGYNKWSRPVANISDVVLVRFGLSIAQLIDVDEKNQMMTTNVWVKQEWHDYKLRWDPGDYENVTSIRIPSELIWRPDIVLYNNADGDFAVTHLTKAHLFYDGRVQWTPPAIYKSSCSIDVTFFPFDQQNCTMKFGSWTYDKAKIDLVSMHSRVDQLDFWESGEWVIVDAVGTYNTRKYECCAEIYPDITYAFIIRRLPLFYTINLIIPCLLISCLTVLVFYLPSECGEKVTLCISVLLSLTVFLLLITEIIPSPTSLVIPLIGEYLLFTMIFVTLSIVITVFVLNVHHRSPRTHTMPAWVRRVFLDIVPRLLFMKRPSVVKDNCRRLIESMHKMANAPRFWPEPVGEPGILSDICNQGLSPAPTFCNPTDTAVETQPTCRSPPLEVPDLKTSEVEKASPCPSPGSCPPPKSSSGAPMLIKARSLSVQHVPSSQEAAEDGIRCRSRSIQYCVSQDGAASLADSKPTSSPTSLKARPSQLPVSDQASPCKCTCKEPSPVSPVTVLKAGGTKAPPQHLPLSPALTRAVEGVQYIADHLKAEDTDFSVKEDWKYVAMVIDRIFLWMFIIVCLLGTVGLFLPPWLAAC

α7 nAChR [3] = target: T3, α7 nAChR (Rattus norvegicus, UniProt Q05941); conditions: Table 1; from Briggs et al, 1997; read-out: Ki α7 [3H]-MLA Binding; cited from earlier work
T3 construct: Rat brain; from tissue
T3 sequence (Q05941 23-502): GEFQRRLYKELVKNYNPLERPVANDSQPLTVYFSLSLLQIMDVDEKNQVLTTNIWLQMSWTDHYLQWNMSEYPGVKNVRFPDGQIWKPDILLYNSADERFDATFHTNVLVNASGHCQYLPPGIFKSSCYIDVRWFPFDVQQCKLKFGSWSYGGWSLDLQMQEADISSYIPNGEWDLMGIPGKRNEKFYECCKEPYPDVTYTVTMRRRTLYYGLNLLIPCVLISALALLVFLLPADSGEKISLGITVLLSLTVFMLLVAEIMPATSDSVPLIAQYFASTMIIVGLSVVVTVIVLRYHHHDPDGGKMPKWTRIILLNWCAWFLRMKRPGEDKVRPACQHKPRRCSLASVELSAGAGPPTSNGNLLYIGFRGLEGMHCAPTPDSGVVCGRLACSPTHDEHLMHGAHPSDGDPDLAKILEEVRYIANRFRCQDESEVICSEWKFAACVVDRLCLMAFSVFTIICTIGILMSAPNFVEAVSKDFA

α4β2 nAChR [4] = target: T2, α4β2 nAChR; test: biochemical; type: binding
α7 nAChR [5] = target: T3, α7 nAChR; test: biochemical; conditions: read-out: Ki α7 [3H]-MLA Binding
α6α4β2β3 nAChR [6] = target: α6α4β2β3 nAChR (Homo sapiens, UniProt P17787+P43681+Q15825); test: 86Rb+ efflux assay, SH-EP1 α6α4β2β3 cells compared with α4β2 cells; type: cell-based
Experimental: (§1) ^86Rb^+-flux Assay. […] After cells had adhered (generally overnight, but no sooner than 4 hr later), medium was removed and replaced with 250 μl per well of complete medium supplemented with ˜300,000 cpm of ^86Rb^+ (NEN; counted at 40% efficiency using Cerenkov counting and the Packard TriCarb 1900 Liquid Scintillation Analyzer).
(§2) Briefly, after aspiration of the bulk of ^86Rb^+ loading medium from each well of the “cell plate,” each well containing cells was rinsed three times with 2 ml of fresh ^86 Rb^+ efflux buffer (130 mM NaCl, 5.4 mM KCl, 2 mM CaCl2, 5 mM glucose, 50 mM HEPES, pH 7.4) to remove extracellular ^86Rb^+. Following removal of residual rinse buffer by aspiration, the flip-plate technique was used again to simultaneously introduce fresh efflux buffer containing drugs of choice at indicated final concentrations from a 24-well “efflux/drug plate” into the wells of the cell plate. […]
(§3) Intrinsic agonist activity of test drugs was ascertained in samples containing that drug only at different concentrations and was normalized, after subtraction of non-specific efflux, to specific efflux assessed using carbamylcholine and efflux-buffer-only controls. Antagonist activity was determined for test drugs at different concentrations in the presence of 1 mM carbamylcholine and was normalized, after subtraction of non-specific efflux, to specific efflux ascertained using carbamylcholine and efflux buffer-only controls. ^86Rb^+ in both cell plates and efflux/drug plates was periodically determined to ensure material balance (i.e., that the sum of ^86Rb^+ released into the efflux/drug plate and ^86Rb^+ remaining in the cell plate were the same for each well) and to determine efficiency of ^86Rb^+ loading (the percentage of applied ^86Rb^+ actually loaded into cells).
(§4) In some cases, biphasic dose-ion flux response curves were evident and were fit to a two-phase Hill equation from which EC50 and Hill coefficients for the rising, agonist phase, and IC50 and Hill coefficients for the falling, self-inhibitory phase could be determined (Prism).

α6α4β2β3 nAChR [7] = target: α6α4β2β3 nAChR (Homo sapiens, UniProt P17787+P43681+Q15825, P452S); test: as above; type: cell-based
Chain of α6α4β2β3 nAChR (Homo sapiens, UniProt P17787+P43681+Q15825, P452S) (P43681 27-627 P452S): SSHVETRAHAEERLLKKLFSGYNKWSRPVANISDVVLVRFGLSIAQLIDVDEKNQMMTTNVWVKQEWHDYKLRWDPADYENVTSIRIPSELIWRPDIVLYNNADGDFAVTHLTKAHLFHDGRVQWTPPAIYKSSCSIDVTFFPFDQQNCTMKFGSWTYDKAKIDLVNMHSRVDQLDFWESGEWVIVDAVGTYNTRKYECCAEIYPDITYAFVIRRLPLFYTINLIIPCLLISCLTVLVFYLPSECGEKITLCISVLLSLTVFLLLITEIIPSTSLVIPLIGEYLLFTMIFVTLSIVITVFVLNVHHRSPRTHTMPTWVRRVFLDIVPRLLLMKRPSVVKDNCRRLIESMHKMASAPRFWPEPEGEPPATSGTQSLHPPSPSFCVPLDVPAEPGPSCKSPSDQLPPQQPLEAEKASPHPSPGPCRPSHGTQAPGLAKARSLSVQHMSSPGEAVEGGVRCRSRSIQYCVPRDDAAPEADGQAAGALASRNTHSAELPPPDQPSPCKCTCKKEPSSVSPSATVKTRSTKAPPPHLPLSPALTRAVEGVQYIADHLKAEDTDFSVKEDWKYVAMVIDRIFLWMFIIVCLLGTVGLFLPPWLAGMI
Chain of α6α4β2β3 nAChR (Homo sapiens, UniProt P17787+P43681+Q15825, P452S) (Q15825 26-494): as the sequence (Q15825 26-494) above
Chain of α6α4β2β3 nAChR (Homo sapiens, UniProt P17787+P43681+Q15825, P452S) (P17787 26-502): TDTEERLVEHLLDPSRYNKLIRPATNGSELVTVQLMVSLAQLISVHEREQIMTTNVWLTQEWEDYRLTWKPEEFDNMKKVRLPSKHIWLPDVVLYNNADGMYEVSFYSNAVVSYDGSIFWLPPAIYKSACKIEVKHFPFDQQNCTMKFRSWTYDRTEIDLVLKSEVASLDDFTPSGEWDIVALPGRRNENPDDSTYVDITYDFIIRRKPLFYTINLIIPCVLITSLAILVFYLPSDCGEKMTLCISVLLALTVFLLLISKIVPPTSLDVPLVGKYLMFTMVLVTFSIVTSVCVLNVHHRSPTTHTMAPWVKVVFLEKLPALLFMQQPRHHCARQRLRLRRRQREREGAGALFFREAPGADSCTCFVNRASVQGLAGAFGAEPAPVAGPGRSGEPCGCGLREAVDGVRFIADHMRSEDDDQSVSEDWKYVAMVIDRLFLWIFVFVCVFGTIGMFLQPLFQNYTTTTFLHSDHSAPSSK
Chain of α6α4β2β3 nAChR (Homo sapiens, UniProt P17787+P43681+Q15825, P452S) (Q05901 22-458, further chain): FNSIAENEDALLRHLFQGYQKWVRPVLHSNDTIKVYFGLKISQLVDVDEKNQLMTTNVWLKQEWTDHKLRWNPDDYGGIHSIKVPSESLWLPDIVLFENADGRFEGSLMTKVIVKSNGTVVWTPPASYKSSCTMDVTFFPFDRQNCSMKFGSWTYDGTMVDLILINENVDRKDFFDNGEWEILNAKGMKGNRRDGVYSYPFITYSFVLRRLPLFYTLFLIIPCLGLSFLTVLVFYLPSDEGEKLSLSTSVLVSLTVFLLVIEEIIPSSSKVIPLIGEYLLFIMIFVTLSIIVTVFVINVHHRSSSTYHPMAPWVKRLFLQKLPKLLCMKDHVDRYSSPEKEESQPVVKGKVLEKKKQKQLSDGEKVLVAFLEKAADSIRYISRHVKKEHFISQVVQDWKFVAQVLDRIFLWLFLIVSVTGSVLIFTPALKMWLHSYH
Experimental: as §1, §2, §3, §4

DA release = conditions: Bencherif, et al., 1998; cited from earlier work
α6β3β4α5 nAChR [8] = target: T1, α6β3β4α5 nAChR; test: 86Rb+ efflux assay, SH-EP1 α6β3β4α5 cells; type: cell-based; conditions: SH-EP1 cells expressing α6β3β4α5-nAChR, FIG. 2
Experimental: ^86Rb^+-flux Assay. Cells were harvested at confluence from 100-mm plates by mild trypsinization (Irvine Scientific, Santa Ana, Calif.) before being resuspended in complete medium and evenly seeded at a density of one confluent 100-mm plate per 24-well plate (Falcon; ˜100-125 μg of total cell protein per well in a 500 μl volume). After cells had adhered (generally overnight, but no sooner than 4 hr later), medium was removed and replaced with 250 μl per well of complete medium supplemented with ˜300,000 cpm of ^86Rb^+ (NEN; counted at 40% efficiency using Cerenkov counting and the Packard TriCarb 1900 Liquid Scintillation Analyzer).
After at least 4 hr and typically overnight, ^86Rb^+ efflux was measured using the “flip-plate” technique (Lukas et al., 2002). […]
For each experiment, normalization and quality control measurements were made of total ^86Rb^+ efflux in samples containing a fully efficacious dose of 1 mM carbamylcholine and of non-specific ^86Rb^+ efflux measured using either samples containing 1 mM carbamylcholine plus 100 μM mecamylamine, which gave full block of agonist-induced or spontaneous, nAChR-mediated ion flux, or samples containing efflux buffer alone to assess any contributions due to spontaneous nAChR-mediated ion flux. […] Specific ^86Rb^+ efflux was determined in absolute terms and as a percentage of loaded ^86Rb^+. […]

[9] = SH-EP1 cells, Table 1, read-out: Ki α6β3β4α5 [3H]-EPI Binding
[10] = SH-EP1 α6β3β4α5 membranes, read-out: Ki in competition with [3H]-EPI (rank order of potency)
[11] = Ki in competition with [3H]-EPI (rank order of potency)
[12] = read-out: Ki α6β3β4α5 [3H]-EPI Binding
[13] = read-out: Ki α4β2 [3H]-NIC Binding

For CN1[C@@H](CC(=O)c2ccccc2)CCC[C@H]1C[C@H](O)c1ccccc1 [(-)-LOB, lobeline], the Ki (α6β3β4α5 nAChR [1]; [9]) was 7 nM and the Ki (α6β3β4α5 nAChR [1]; [10]) was 7 to 9 nM and 6 nM.
Compound CNC1(C)C2CCC(C2)C1(C)C (stereo not drawn) [mecamylamine] has a Ki (α6β3β4α5 nAChR [1]; read-out: Ki in competition with [3H]-EPI (rank order of potency)) greater than 10000 nM.
In the case of Clc1ccc(C2CC3CCC2N3)cn1 (stereo not drawn) [EPI, epibatidine], the Ki (α6β3β4α5 nAChR [1]; Ki α6β3β4α5 [3H]-EPI Binding) is reported as 0.07 nM.
For COc1ccc(/C=C2\CCCN=C2c2cccnc2)c(OC)c1 [GTS-21, (2.4)-dimethoxybenzylidene anabaseine], the Ki (α6β3β4α5 nAChR [1]; [11]) is given as 900 to 3500 nM and 500 to 2000 nM, the Ki (α6β3β4α5 nAChR [1]; [9]) is given as 1400 nM and the Ki (α4β2 nAChR [2]) is given as 20 nM. For the same compound, the Ki (α7 nAChR [3]) was 2000 nM.
In the case of CO[C@H]1CC=C2CCN3CCC4=C(CC(=O)OC4)[C@]23C1 [DHβE, dihydro-β-erythoidine], the Ki (α6β3β4α5 nAChR [1]; [12]) is reported as greater than 10000 nM, the Ki (α4β2 nAChR [4]; [13]) is reported as 26.4 nM and the Ki (α7 nAChR [5]) is reported as 5000 nM.
In the case of CC(=O)O[C@H]1C[C@@H]2CC[C@@H]3[C@H](CC[C@@]4(C)[C@H]3C[C@H]([N+]3(C)CCCCC3)[C@@H]4OC(C)=O)[C@@]2(C)C[C@@H]1[N+]1(C)CCCCC1 [pancuronium], the “Sensitivity of α6α4β2β3-nAChR to functional blockade relative to α4β2-nAChR” value (α6α4β2β3 nAChR [6]) is reported as “lower sensitivity”.
In the case of CCN1C[C@]2(COC(=O)c3ccccc3N3C(=O)C[C@H](C)C3=O)CC[C@H](OC)[C@]34C5C[C@@H]6[C@@H](OC)C[C@@](O)(C5[C@H]6OC(C)=O)[C@](O)(C13)[C@@H](OC)C24 (stereo partly drawn) [NUD, nudikauline], the Ki (α6β3β4α5 nAChR [1]; [9]) is reported as 370 nM.
For O=c1cccc2n1C[C@@H]1CNC[C@H]2C1 [(-)-CYT, cytisine], the Ki (α6β3β4α5 nAChR [1]; [12]) was 150 nM, the Ki (α4β2 nAChR [4]; [13]) was 1 nM and the Ki (α7 nAChR [5]) was 1160 nM. The “Agonist efficacy/potency at α6α4β2β3 nAChR relative to α4β2-nAChR” value (α6α4β2β3 nAChR [7]) was “higher efficacy and agonist potency; also recorded: much greater efficacy”.
With C#Cc1cncc([C@@H]2CCCN2C)c1 [SIB-1508Y, altinicline] the Ki (α6β3β4α5 nAChR [1]; [11]) was 900 to 3500 nM and 500 to 2000 nM, the Ki (α6β3β4α5 nAChR [1]; [9]) was 950 nM and the Ki (α4β2 nAChR [4]) was 200 nM.
For c1cncc(C2CC3CCN2CC3)c1 (racemic) [TC-2429, (+/−)-2-(−3-pyridinyl)-1-azabicyclo[2.2.2]octane], the Ki (α6β3β4α5 nAChR [1]; [10]) is given as 2 nM and the DA release (DA release) is given as “robust DA release”.
For Cc1cc([C@@H]2CCCN2C)on1 [ABT-418, (S)-3-methyl-5-(1-methyl-2-pyrrolidinyl)isoxazole], the Ki (α6β3β4α5 nAChR [1]; [11]) was 900 to 3500 nM and 500 to 2000 nM, the Ki (α6β3β4α5 nAChR [1]; [9]) was 850 nM and the Ki (α4β2 nAChR [4]; Rat brain, Table 1, read-out: Ki α4β2 [3H]-NIC Binding) was 39 nM.
For CNC(=O)OCC[N+](C)(C)C [MCC, methylcarbamylcholine], the Ki (α6β3β4α5 nAChR [1]; [9]) was 970 nM.
For C[N+](C)(C)CCOC(N)=O [CAR, carbachol], the Ki (α6β3β4α5 nAChR [1]; [9]) was 3500 nM, the Ki (α6β3β4α5 nAChR [1]; [10]) was 900 to 3500 nM and 500 to 2000 nM and the “86Rb+ efflux response (agonist)” value (α6β3β4α5 nAChR [8]) was “activate ^86Rb^+ efflux responses”.
With CCN1C[C@]2(COC(=O)c3ccccc3N3C(=O)C[C@H](C)C3=O)CC[C@H](OC)[C@@]34[C@@H]5C[C@H]6[C@H](OC)[C@@H]5[C@](O)(C[C@@H]6OC)[C@@](O)([C@@H](OC)[C@H]23)[C@@H]14 [MLA, methyllycaconitine] the Ki (α6β3β4α5 nAChR [1]; [9]) was 160 nM and the Ki (α6β3β4α5 nAChR [1]; [10]) was 150 to 165 nM and 110 to 160 nM.
For CN1CCCC1c1cccnc1 (single isomer, unassigned; (-)) [(-)-NIC, nicotine], the Ki (α6β3β4α5 nAChR [1]; [11]) was 150 to 165 nM and 110 to 160 nM and the Ki (α6β3β4α5 nAChR [1]; Ki α6β3β4α5 [3H]-EPI Binding) was 160 nM.
With α-bungarotoxin [α-Btx] the Ki (α6β3β4α5 nAChR [1]; [12]) was greater than 10000 nM and the Ki (α4β2 nAChR [4]; [13]) was greater than 10000 nM.
For c1cncc(OC[C@@H]2CCN2)c1 [A-85380, 3-[2(S)-azetidinylmethoxy]pyridine], the Ki (α6β3β4α5 nAChR [1]; [11]) was 7 to 9 nM and 6 nM, the Ki (α6β3β4α5 nAChR [1]; [9]) was 9 nM and the Ki (α4β2 nAChR [4]) was 3 nM. It also gave a Ki (α7 nAChR [5]; Rat brain, Table 1) of 1200 nM.
